Measurements taken from patent US11370798B2 (Vertex Pharmaceuticals Incorporated, priority 2012, dated 2022).

test system: HCT116 colorectal cancer cells; experiment: Cisplatin sensitization assay (96 h cell viability MTS); assay type: cell-based; conditions: compound and Cisplatin added simultaneously, Cisplatin sensitization value;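 further: Test-compound concentration that lowers the Cisplatin IC50 by a set fold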
Procedure: Compounds can be screened for their ability to sensitize HCT116 colorectal cancer cells to Cisplatin using a 96 h cell viability (MTS) assay. […] Compounds and Cisplatin are then both added simultaneously to the cell media in 2-fold serial dilutions from a top final concentration of 10 μM as a full matrix of concentrations in a final cell volume of 200 μl, and the cells are then incubated at 37° C. in 5% CO2. After 96 h, 40 μl of MTS reagent (Promega G358a) is added to each well and the cells are incubated for 1 h at 37° C. in 5% CO2.
Compounds with a Cisplatin sensitization value of <0.02 μM are marked with “+++.” Compounds with a Cisplatin sensitization value>0.02 μM but <0.2 μM are marked with “++.” Compounds with a Cisplatin sensitization value>0.2 μM but <5 μM are marked with “+.”

For `Nc1nn2cc(F)cnc2c1C(=O)Nc1cnccc1N1CCN(C2CCOC2)CC1` (racemic) [I-N-19, (R,S)-2-amino-6-fluoro-N-(4-(4-(tetrahydrofuran-3-yl)piperazin-1-yl)pyridin-3-yl)pyrazolo[1,5-a]pyrimidine-3-carboxamide], which “Cisplatin Sensitization Assay” value is on record?
Its value is “+++ (Cisplatin sensitization value of <0.02 μM)”.

Which “Cisplatin Sensitization Assay” value does the source give for `N#CCc1cnc2c(C(=O)Nc3cnccc3OC3CCCNC3)c(N)nn2c1` (racemic) [I-O-2, (R,S)-2-amino-6-(cyanomethyl)-N-(4-(piperidin-3-yloxy)pyridin-3-yl)pyrazolo[1,5-a]pyrimidine-3-carboxamide] here?
The value was “++ (Cisplatin sensitization value>0.02 μM but <0.2 μM)”.

With `Nc1nn2cc(F)cnc2c1C(=O)Nc1cnccc1OC1CN2CCC1CC2` (racemic) [I-O-6, (R,S)-2-amino-6-fluoro-N-(4-(quinuclidin-3-yloxy)pyridin-3-yl)pyrazolo[1,5-a]pyrimidine-3-carboxamide] as the molecule, how does the “Cisplatin Sensitization Assay” value read?
The value was “+++ (Cisplatin sensitization value of <0.02 μM)”.

For `Nc1nn2cc(F)cnc2c1C(=O)Nc1cnccc1OC1CCOC1` (racemic) [I-O-15, (R,S)-2-amino-6-fluoro-N-(4-((tetrahydrofuran-3-yl)oxy)pyridin-3-yl)pyrazolo[1,5-a]pyrimidine-3-carboxamide], which “Cisplatin Sensitization Assay” value is on record?
Its value is “+++ (Cisplatin sensitization value of <0.02 μM)”.

For `N#CCc1cnc2c(C(=O)Nc3cnccc3OC3CCOC3)c(N)nn2c1` (racemic) [I-O-37, (R,S)-2-amino-6-(cyanomethyl)-N-(4-((tetrahydrofuran-3-yl)oxy)pyridin-3-yl)pyrazolo[1,5-a]pyrimidine-3-carboxamide], which “Cisplatin Sensitization Assay” value is on record?
The value was “+++ (Cisplatin sensitization value of <0.02 μM)”.

How did the “Cisplatin Sensitization Assay” value turn out when `Nc1nn2cc(F)cnc2c1C(=O)Nc1cnccc1O[C@@H]1CN2CCC1CC2` [Compound I-0-10, (S)-2-amino-6-fluoro-N-(4-(quinuclidin-3-yloxy)pyridin-3-yl)pyrazolo[1,5-a]pyrimidine-3-carboxamide] was run?
The value was “+++ (Cisplatin sensitization value of <0.02 μM)”.

For `Nc1nn2cc(F)cnc2c1C(=O)Nc1cnccc1OC1CCN(C2COC2)CC1` [Compound I-0-11, 2-amino-6-fluoro-N-(4-((1-(oxetan-3-yl)piperidin-4-yl)oxy)pyridin-3-yl)pyrazolo[1,5-a]pyrimidine-3-carboxamide], which “Cisplatin Sensitization Assay” value is on record?
The value was “+++ (Cisplatin sensitization value of <0.02 μM)”.

`CN1CCC(c2ccncc2NC(=O)c2c(N)nn3cc(F)cnc23)CC1` [I-C-1, 2-amino-6-fluoro-N-(4-(1-methylpiperidin-4-yl)pyridin-3-yl)pyrazolo[1,5-a]pyrimidine-3-carboxamide] was tested. Which “Cisplatin Sensitization Assay” value did it give?
Its value is “++ (Cisplatin sensitization value>0.02 μM but <0.2 μM)”.

`Cc1ccncc1NC(=O)c1c(N)nn2cc(Cl)cnc12` [I-C-2, 2-amino-6-chloro-N-(4-methylpyridin-3-yl)pyrazolo[1,5-a]pyrimidine-3-carboxamide] was tested. Which “Cisplatin Sensitization Assay” value did it give?
Its value is “++ (Cisplatin sensitization value>0.02 μM but <0.2 μM)”.

For `Cc1ccncc1NC(=O)c1c(N)nn2cc(F)cnc12` [I-C-4, 2-amino-6-fluoro-N-(4-methylpyridin-3-yl)pyrazolo[1,5-a]pyrimidine-3-carboxamide], which “Cisplatin Sensitization Assay” value is on record?
The value was “++ (Cisplatin sensitization value>0.02 μM but <0.2 μM)”.

`Nc1nn2cc(F)cnc2c1C(=O)Nc1cnccc1-c1ccccc1` [I-C-5, 2-amino-6-fluoro-N-(4-phenylpyridin-3-yl)pyrazolo[1,5-a]pyrimidine-3-carboxamide] was tested. Which “Cisplatin Sensitization Assay” value did it give?
The value was “+++ (Cisplatin sensitization value of <0.02 μM)”.

`N#CCc1cnc2c(C(=O)Nc3cnccc3-c3ccccc3)c(N)nn2c1` [I-C-6, 2-amino-6-(cyanomethyl)-N-(4-phenylpyridin-3-yl)pyrazolo[1,5-a]pyrimidine-3-carboxamide] was tested. Which “Cisplatin Sensitization Assay” value did it give?
Its value is “+++ (Cisplatin sensitization value of <0.02 μM)”.

Which “Cisplatin Sensitization Assay” value does the source give for `Nc1nn2cc(F)cnc2c1C(=O)Nc1cncc2c1CCNC2` [I-C-7, 2-amino-6-fluoro-N-(5,6,7,8-tetrahydro-2,7-naphthyridin-4-yl)pyrazolo[1,5-a]pyrimidine-3-carboxamide] here?
The value was “++ (Cisplatin sensitization value>0.02 μM but <0.2 μM)”.

Which “Cisplatin Sensitization Assay” value does the source give for `CN1CCc2c(cncc2NC(=O)c2c(N)nn3cc(F)cnc23)C1` [I-C-8, 2-amino-6-fluoro-N-(7-methyl-5,6,7,8-tetrahydro-2,7-naphthyridin-4-yl)pyrazolo[1,5-a]pyrimidine-3-carboxamide] here?
Its value is “+ (Cisplatin sensitization value>0.2 μM but <5 μM)”.

Which “Cisplatin Sensitization Assay” value does the source give for `C[N+]1([O-])CCc2c(cncc2NC(=O)c2c(N)nn3cc(F)cnc23)C1` (centres unmarked) [I-C-9, 5-(2-amino-6-fluoropyrazolo[1,5-a]pyrimidine-3-carboxamido)-2-methyl-1,2,3,4-tetrahydro-2,7-naphthyridine 2-oxide] here?
The value was “+ (Cisplatin sensitization value>0.2 μM but <5 μM)”.

With `Nc1nn2cc(F)cnc2c1C(=O)Nc1cnccc1C1CCN(C2COC2)CC1` [I-C-10, 2-amino-6-fluoro-N-(4-(1-(oxetan-3-yl)piperidin-4-yl)pyridin-3-yl)pyrazolo[1,5-a]pyrimidine-3-carboxamide] as the molecule, how does the “Cisplatin Sensitization Assay” value read?
The value was “+++ (Cisplatin sensitization value of <0.02 μM)”.

For `Nc1nn2cc(Cl)cnc2c1C(=O)Nc1cnccc1C1CCN(C2COC2)CC1` [I-C-11, 2-amino-6-chloro-N-(4-(1-(oxetan-3-yl)piperidin-4-yl)pyridin-3-yl)pyrazolo[1,5-a]pyrimidine-3-carboxamide], which “Cisplatin Sensitization Assay” value is on record?
Its value is “+++ (Cisplatin sensitization value of <0.02 μM)”.

`Nc1nn2cc(F)cnc2c1C(=O)Nc1cncc(F)c1C1=CCN(C2COC2)CC1` [I-C-12, 2-amino-6-fluoro-N-(5-fluoro-1′-(oxetan-3-yl)-1′,2′,3′,6′-tetrahydro-[4,4′-bipyridin]-3-yl)pyrazolo[1,5-a]pyrimidine-3-carboxamide] was tested. Which “Cisplatin Sensitization Assay” value did it give?
The value was “+++ (Cisplatin sensitization value of <0.02 μM)”.

For `Nc1nn2cc(F)cnc2c1C(=O)Nc1cncc(F)c1C1CCN(C2COC2)CC1` [I-C-13, 2-amino-6-fluoro-N-(5-fluoro-4-(1-(oxetan-3-yl)piperidin-4-yl)pyridin-3-yl)pyrazolo[1,5-a]pyrimidine-3-carboxamide], which “Cisplatin Sensitization Assay” value is on record?
Its value is “++ (Cisplatin sensitization value>0.02 μM but <0.2 μM)”.

`CN1CCC(c2c(F)cncc2NC(=O)c2c(N)nn3cc(F)cnc23)CC1` [I-C-14, 2-amino-6-fluoro-N-(5-fluoro-4-(1-methylpiperidin-4-yl)pyridin-3-yl)pyrazolo[1,5-a]pyrimidine-3-carboxamide] was tested. Which “Cisplatin Sensitization Assay” value did it give?
Its value is “+ (Cisplatin sensitization value>0.2 μM but <5 μM)”.

How did the “Cisplatin Sensitization Assay” value turn out when `Nc1nn2cc(F)cnc2c1C(=O)Nc1cnccc1-c1cccnc1` [I-C-15, N-([3,4′-bipyridin]-3′-yl)-2-amino-6-fluoropyrazolo[1,5-a]pyrimidine-3-carboxamide] was run?
Its value is “++ (Cisplatin sensitization value>0.02 μM but <0.2 μM)”.

How did the “Cisplatin Sensitization Assay” value turn out when `CN1CCC(C(=O)N2CCC(c3ccncc3NC(=O)c3c(N)nn4cc(F)cnc34)CC2)CC1` [I-C-16, 2-amino-6-fluoro-N-(4-(1-(1-methylpiperidine-4-carbonyl)piperidin-4-yl)pyridin-3-yl)pyrazolo[1,5-a]pyrimidine-3-carboxamide] was run?
Its value is “+ (Cisplatin sensitization value>0.2 μM but <5 μM)”.

For `CN1CCN(C(=O)N2CCC(c3ccncc3NC(=O)c3c(N)nn4cc(F)cnc34)CC2)CC1` [I-C-17, 2-amino-6-fluoro-N-(4-(1-(4-methylpiperazine-1-carbonyl)piperidin-4-yl)pyridin-3-yl)pyrazolo[1,5-a]pyrimidine-3-carboxamide], which “Cisplatin Sensitization Assay” value is on record?
The value was “++ (Cisplatin sensitization value>0.02 μM but <0.2 μM)”.
